Drawing on US9394273B2, “Therapeutic prostaglandin receptor agonists” (Allergan, Inc., priority 2014, dated 2016), this text covers EC50 and Ki for 3 compounds.

The target in one experiment is TP (Homo sapiens (Human), UniProt P21731). The experiment can be described thus: Other receptors FLIPR: TP. The following applies: NA undefined in patent. Format: cell-based. The text has this: (§1) U.S. patent application publication No. 20070129552, published on Jun. 7, 2007, incorporated by reference herein, describes the methods used to obtain the in vitro data in Table 1 below.

Experiment [1] concerns the target T1, prostaglandin EP4 receptor (Homo sapiens (Human), UniProt P35408). The experiment can be described thus: EP4 binding assay (Ki). The following applies: read-out: EP4 Ki EC50.
From the text: as §1

The target of the next experiment is EP3 (Homo sapiens (Human), UniProt P43115). The experiment can be described thus: Other receptors FLIPR: EP3. Format: cell-based. The following applies: NA undefined in patent.
From the text: as §1

The target in experiment [2] is T2, EP2 (Homo sapiens (Human), UniProt P43116). The experiment can be described thus: EP2 cAMP functional assay. It counts as cell-based.
From the text: as §1

Experiment [3] deals with T1, prostaglandin EP4 receptor. The experiment can be described thus: EP4 cAMP functional assay. It counts as cell-based.
From the text: as §1

Experiment [4] deals with T2, EP2. The experiment can be described thus: EP2 binding assay (Ki).
From the text: as §1

Chain of EP3 (P43115 whole entry): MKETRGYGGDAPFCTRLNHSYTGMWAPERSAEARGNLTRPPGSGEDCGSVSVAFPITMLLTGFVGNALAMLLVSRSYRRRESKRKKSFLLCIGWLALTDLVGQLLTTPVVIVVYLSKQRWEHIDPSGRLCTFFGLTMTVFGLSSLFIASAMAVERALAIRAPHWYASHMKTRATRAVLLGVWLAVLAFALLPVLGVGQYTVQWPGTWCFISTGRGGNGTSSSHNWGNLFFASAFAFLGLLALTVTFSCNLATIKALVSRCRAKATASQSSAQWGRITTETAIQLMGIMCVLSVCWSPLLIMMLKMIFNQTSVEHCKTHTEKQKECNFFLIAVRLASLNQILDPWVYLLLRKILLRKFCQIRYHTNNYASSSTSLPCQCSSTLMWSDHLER
Chain of TP (P21731 whole entry): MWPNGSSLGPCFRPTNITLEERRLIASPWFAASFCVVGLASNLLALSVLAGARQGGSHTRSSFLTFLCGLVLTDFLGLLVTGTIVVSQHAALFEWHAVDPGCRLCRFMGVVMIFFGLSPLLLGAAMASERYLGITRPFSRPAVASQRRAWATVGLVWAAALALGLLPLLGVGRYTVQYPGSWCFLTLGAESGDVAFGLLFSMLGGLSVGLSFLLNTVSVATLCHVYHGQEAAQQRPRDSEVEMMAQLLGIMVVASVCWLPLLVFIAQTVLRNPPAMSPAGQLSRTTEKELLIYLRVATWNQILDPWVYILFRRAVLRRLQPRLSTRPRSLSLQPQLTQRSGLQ
T2 sequence (P43116 whole entry): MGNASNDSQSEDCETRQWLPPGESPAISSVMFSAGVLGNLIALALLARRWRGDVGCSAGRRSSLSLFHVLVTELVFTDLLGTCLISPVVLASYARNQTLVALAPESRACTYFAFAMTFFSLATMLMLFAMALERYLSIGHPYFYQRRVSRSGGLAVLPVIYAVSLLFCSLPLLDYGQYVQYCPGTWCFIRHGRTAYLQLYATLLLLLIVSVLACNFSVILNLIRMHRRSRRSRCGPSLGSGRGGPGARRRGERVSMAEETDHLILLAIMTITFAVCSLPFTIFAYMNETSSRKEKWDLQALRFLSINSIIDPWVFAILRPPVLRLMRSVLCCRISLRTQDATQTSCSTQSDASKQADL
T1 sequence (P35408 whole entry): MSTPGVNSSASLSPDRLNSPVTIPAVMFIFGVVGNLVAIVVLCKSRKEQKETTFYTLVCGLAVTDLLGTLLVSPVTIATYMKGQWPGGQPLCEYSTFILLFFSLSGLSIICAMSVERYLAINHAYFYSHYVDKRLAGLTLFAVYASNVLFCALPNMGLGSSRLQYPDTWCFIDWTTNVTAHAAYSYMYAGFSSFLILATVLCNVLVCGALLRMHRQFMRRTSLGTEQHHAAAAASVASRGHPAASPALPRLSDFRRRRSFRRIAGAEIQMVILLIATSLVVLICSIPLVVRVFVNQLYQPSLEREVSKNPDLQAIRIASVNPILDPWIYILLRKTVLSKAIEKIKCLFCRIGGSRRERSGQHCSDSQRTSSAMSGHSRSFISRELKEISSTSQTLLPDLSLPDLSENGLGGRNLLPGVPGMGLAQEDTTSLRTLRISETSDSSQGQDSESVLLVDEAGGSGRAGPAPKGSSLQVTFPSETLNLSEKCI

As usually defined, the EC50 is the concentration needed to bring the measured effect to its halfway point. Higher therefore signals weaker potency. As a reminder, the Ki is the dissociation constant of the complex between target and ligand, obtained from inhibition or displacement. With `O=C(O)c1ccc(CC[C@H]2C(=O)CC[C@@H]2/C=C/C(O)Cc2ccc(F)c(F)c2)cc1` (single isomer, unassigned) [Entry 24, (E)-4-(2-(2-(4-(3,4-difluorophenyl)-3-hydroxybut-1-en-1-yl)-5-oxocyclopentyl)ethyl)benzoic acid], the EC50 came to 2450 nM on TP, 1510 nM on EP3, 30 nM on EP2 [2] and 0.3 nM in experiment [3]. The Ki was determined as 3 nM in experiment [1] and 1530 nM at EP2 [4].
`O=C(O)c1ccc(CC[C@H]2C(=O)CC[C@@H]2/C=C/C(O)Cc2ccc(F)cc2)cc1` (single isomer, unassigned) [Entry 20, (E)-4-(2-(2-(4-(4-fluorophenyl)-3-hydroxybut-1-en-1-yl)-5-oxocyclopentyl)ethyl)benzoic acid]: the EC50 on TP came to 5600 nM; on EP3, 952 nM; at EP2 [2], 11 nM; in experiment [3] it was 0.2 nM. Also, the Ki in experiment [1] came out at 3 nM; on EP2 [4], 745 nM.
Regarding `O=C(O)c1ccc(CC[C@H]2C(=O)CC[C@@H]2/C=C/C(O)Cc2cccc(F)c2)cc1` (single isomer, unassigned) [Entry 6, (E)-4-(2-(2-(4-(3-fluorophenyl)-3-hydroxybut-1-en-1-yl)-5-oxocyclopentyl)ethyl)benzoic acid], the EC50 was 7190 nM at TP, 721 nM on EP3, 10 nM at EP2 [2] and 0.04 nM in experiment [3]. The values for the Ki (in experiment [1]; on EP2 [4]) were 2 nM and 1780 nM, respectively.
